Results: ChEMBL document CHEMBL2440031, “Benzochalcones bearing pyrazoline moieties show anti-colorectal cancer activities and selective inhibitory effects on aurora kinases” (Bioorg Med Chem, 2013)
The source made the active and inactive calls. The calls are words filed in the database; no cut-off is given here.

Assays:
HCT-116 [1] = test: Cytotoxicity against human HCT116 cells after 7 days using crystal violet staining by clonogenic survival assay; assay type: functional, cell-based; conditions: HCT-116, 168 h
HCT-116 [2] = test: Increase of cyclin-D1 expression in human HCT116 cells at 40 uM after 24 to 48 hrs by Western blot analysis; assay type: functional, cell-based
HCT-116 [3] = test: Increase of CDK expression in human HCT116 cells at 40 uM by Western blot analysis; assay type: functional, cell-based; conditions: TDE = time-dependent effect
HCT-116 [4] = test: Cytotoxicity against human HCT116 cells up to 40 uM by WST-8 assay; assay type: functional, cell-based; conditions: TDE = time-dependent effect
HCT-116 [5] = test: Increase of cyclin-D1 expression in human HCT116 cells at 40 uM after 12 hrs by Western blot analysis; assay type: functional, cell-based
HCT-116 [6] = test: Cytotoxicity against human HCT116 cells after 24 to 48 hrs by WST-8 assay; assay type: functional, cell-based
HCT-116 [7] = test: Cell cycle arrest in human HCT116 cells assessed as decrease of G2/M phase accumulation at 40 uM after 12 to 48 hrs using propidium iodide staining by flow cytometric analysis; assay type: functional, cell-based
HCT-116 [8] = test: Cell cycle arrest in human HCT116 cells assessed as accumulation at sub-G1 phase accumulation at 40 uM after 12 to 48 hrs using propidium iodide staining by flow cytometric analysis relative to total cells; assay type: functional
HCT-116 [9] = test: Decrease of cyclin-B1 expression in human HCT116 cells at 40 uM after 24 hrs by Western blot analysis; assay type: functional, cell-based
HCT-116 [10] = test: Effect on cyclin-A1 expression in human HCT116 cells at 40 uM after 12 to 48 hrs by Western blot analysis; assay type: functional, cell-based
HCT-116 [11] = test: Cell cycle arrest in human HCT116 cells assessed as decrease of S phase accumulation at 40 uM after 12 to 48 hrs using propidium iodide staining by flow cytometric analysis; assay type: functional, cell-based
HCT-116 [12] = test: Cell cycle arrest in human HCT116 cells assessed as increase of G1 phase accumulation at 40 uM after 12 to 48 hrs using propidium iodide staining by flow cytometric analysis; assay type: functional, cell-based
HCT-116 [13] = test: Increase of p21 expression in human HCT116 cells at 40 uM by Western blot analysis; assay type: functional, cell-based; conditions: TDE = time-dependent effect

Compound | IC50 (HCT-116 [1]) [µM] | also measured
COc1ccc(C2CC(c3ccc4ccccc4c3O)=NN2)c(OC)c1OC (stereo not drawn) | 11.3 | –
COc1cccc(C2CC(c3c(O)ccc4ccccc34)=NN2)c1OC (stereo not drawn) | 6.3 | –
COc1ccc(C2CC(c3c(O)ccc4ccccc34)=NN2)c(OC)c1 (stereo not drawn) | 2.4 | Activity (HCT-116 [2]): inactive; Activity (HCT-116 [3]): tde; Activity (HCT-116 [4]): tde; Activity (HCT-116 [5]): Active; Activity (HCT-116 [6]): Dose-dependent effect; Activity (HCT-116 [7]): Active; Activity (HCT-116 [8]): 21.3%; Activity (HCT-116 [9]): Active; Activity (HCT-116 [10]): Active; Activity (HCT-116 [11]): Active; Activity (HCT-116 [12]): Active; Activity (HCT-116 [13]): tde
COc1ccc(C2CC(c3ccc4ccccc4c3O)=NN2)c(OC)c1 (stereo not drawn) | 8.8 | –
COc1ccc(C2CC(c3ccc4ccccc4c3O)=NN2)cc1 (stereo not drawn) | 13.2 | –
COc1cc(OC)c(C2CC(c3ccc4ccccc4c3O)=NN2)c(OC)c1 (stereo not drawn) | 32.5 | –
COc1cc(OC)cc(C2CC(c3ccc4ccccc4c3O)=NN2)c1 (stereo not drawn) | 4.7 | –
COc1ccc(C2CC(c3c(O)ccc4ccccc34)=NN2c2ccc(Cl)cc2)cc1 (stereo not drawn) | 9.8 | –
COc1ccccc1C1CC(c2ccc3ccccc3c2O)=NN1 (stereo not drawn) | 17.4 | –
COc1ccc(C2CC(c3c(O)ccc4ccccc34)=NN2c2ccc(Cl)cc2)c(OC)c1 (stereo not drawn) | 5.4 | –
COc1cc(OC)c(C2CC(c3ccc4ccccc4c3O)=NN2)cc1OC (stereo not drawn) | 9 | –
COc1cccc(C2CC(c3ccc4ccccc4c3O)=NN2)c1 (stereo not drawn) | 20.8 | –
COc1cccc(C2CC(c3ccc4ccccc4c3O)=NN2)c1OC (stereo not drawn) | 15.2 | –
COc1cc(OC)c(C2CC(c3c(O)ccc4ccccc34)=NN2c2ccc(Cl)cc2)cc1OC (stereo not drawn) | 7.8 | –
COc1ccc(C2CC(c3c(O)ccc4ccccc34)=NN2)cc1 (stereo not drawn) | 7.8 | –
COc1cc(OC)cc(C2CC(c3c(O)ccc4ccccc34)=NN2)c1 (stereo not drawn) | 5.7 | –
